From PubChem BioAssay (NCI)
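Where inhibition never reached the appropriate level, the endpoint shown equals the highest concentration tested. Otherwise, values were interpolated linearly from a five-concentration, 48-hour dose response in 96-well plates. At the GI50, growth is halved. TGI marks complete inhibition of growth.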

Experiments:
Test in all cases: DTP human tumour cell line panel, 48 h
NCI-H522 lung = system: NCI-H522 lung
OVCAR-8 ovarian = system: OVCAR-8 ovarian
NCI-H226 lung = system: NCI-H226 lung
MCF7 breast = system: MCF7 breast
A549 NSCLC = system: A549 NSCLC
SF-268 CNS = system: SF-268 CNS
HOP-92 NSCLC = system: HOP-92 NSCLC
IGROV1 ovarian = system: IGROV1 ovarian
HL-60(TB) leukemia = system: HL-60(TB) leukemia
HCC-2998 colon = system: HCC-2998 colon
SF-295 CNS = system: SF-295 CNS
MDA-MB-231 breast = system: MDA-MB-231 breast
K-562 leukemia = system: K-562 leukemia
OVCAR-5 ovarian = system: OVCAR-5 ovarian
M14 melanoma = system: M14 melanoma
NCI/ADR-RES ovarian = system: NCI/ADR-RES ovarian
SR leukemia = system: SR leukemia
MDA-MB-468 breast = system: MDA-MB-468 breast
A498 renal = system: A498 renal
CAKI-1 renal = system: CAKI-1 renal
786-0 renal = system: 786-0 renal
SK-MEL-2 melanoma = system: SK-MEL-2 melanoma
HS 578T breast = system: HS 578T breast
HCT-15 colon = system: HCT-15 colon
OVCAR-3 ovarian = system: OVCAR-3 ovarian
T-47D breast = system: T-47D breast
HT29 colon = system: HT29 colon
LOX IMVI melanoma = system: LOX IMVI melanoma
DU-145 prostate = system: DU-145 prostate
U251 CNS = system: U251 CNS

CCN1CCN(c2ccc(NC(=O)Nc3ccc(-c4cc(C(=O)NC(C)C)c5ncccc5n4)cc3)cc2C(F)(F)F)CC1
TGI (NCI-H522 lung): 8430 nM | GI50 (OVCAR-8 ovarian): 5690 nM | TGI (OVCAR-8 ovarian): 17500 nM | GI50 (NCI-H226 lung): 5020 nM | TGI (NCI-H226 lung): 12500 nM | GI50 (MCF7 breast): 631 nM | TGI (MCF7 breast): 1500 nM | GI50 (A549 NSCLC): 1140 nM | TGI (A549 NSCLC): 5770 nM | GI50 (SF-268 CNS): 3560 nM | TGI (SF-268 CNS): 10900 nM | GI50 (HOP-92 NSCLC): 3140 nM | TGI (HOP-92 NSCLC): 8290 nM | GI50 (IGROV1 ovarian): 1420 nM | TGI (IGROV1 ovarian): 5110 nM | GI50 (HL-60(TB) leukemia): 1070 nM | TGI (HL-60(TB) leukemia): 5890 nM | GI50 (HCC-2998 colon): 1440 nM | TGI (HCC-2998 colon): 5090 nM | GI50 (SF-295 CNS): 581 nM | TGI (SF-295 CNS): 1140 nM | GI50 (MDA-MB-231 breast): 610 nM | TGI (MDA-MB-231 breast): 1180 nM | GI50 (K-562 leukemia): 1000 nM | TGI (K-562 leukemia): 34500 nM | GI50 (OVCAR-5 ovarian): 1600 nM | TGI (OVCAR-5 ovarian): 6090 nM | GI50 (M14 melanoma): 723 nM | TGI (M14 melanoma): 1900 nM | GI50 (NCI/ADR-RES ovarian): 3660 nM | TGI (NCI/ADR-RES ovarian): 10000 nM | GI50 (SR leukemia): 1050 nM | TGI (SR leukemia): 12100 nM | GI50 (MDA-MB-468 breast): 766 nM | TGI (MDA-MB-468 breast): 1850 nM | GI50 (A498 renal): 5110 nM | TGI (A498 renal): 9700 nM | GI50 (CAKI-1 renal): 804 nM | TGI (CAKI-1 renal): 2080 nM | GI50 (786-0 renal): 497 nM | TGI (786-0 renal): 1030 nM | GI50 (SK-MEL-2 melanoma): 4820 nM | TGI (SK-MEL-2 melanoma): 9890 nM | GI50 (HS 578T breast): 880 nM | TGI (HS 578T breast): 3450 nM | GI50 (HCT-15 colon): 667 nM | TGI (HCT-15 colon): 1350 nM | GI50 (OVCAR-3 ovarian): 636 nM | TGI (OVCAR-3 ovarian): 1360 nM | GI50 (T-47D breast): 1930 nM | TGI (T-47D breast): 8740 nM | GI50 (HT29 colon): 665 nM | TGI (HT29 colon): 1320 nM | GI50 (LOX IMVI melanoma): 557 nM | TGI (LOX IMVI melanoma): 1050 nM | GI50 (DU-145 prostate): 749 nM | TGI (DU-145 prostate): 1580 nM | GI50 (U251 CNS): 1240 nM | TGI (U251 CNS): 4820 nM
